Source: patent publication US10968224B2, “2,11-diaza-[3.3](2,6)pyridinophane compounds and their application as ligands of essential metal ion based MRI contrast agents and 52MN based PET contrast agents” (DEBRECENI EGYETEM, priority 2015, dated 2021)

Columns and labels:
[1] = Equilibrium study: protonation constants of the ligands; type: physicochemical; conditions: 25° C., 0.15M NaCl
Procedure: (§1) During the physico-chemical studies of BP2AM^Pyp and BP2AM^Pro compounds prepared according to Example 1 and 2, their protonation constants, as well as equilibrium behaviour and kinetic inertness of their Mn(II) complexes was studied in detail, and the characteristic relaxivity values of the complexes were determined in the presence and absence of HSA (Human Serum Albumin), at 25 and 37° C. and physiological pH. All studies were performed in the presence of 0.15 M NaCl, the same concentration as that of the electrolyte under physiological conditions.
(§2) The results of equilibrium study are summarized in Table 1, in addition to the protonation constants, total basicity of ligands and stability constants of their Mn(II) complexes, the pMn value calculated for complexes are also represented in the table.

[2] = Equilibrium study: stability constants of the Mn(II) complexes and calculated pMn; type: physicochemical; conditions: 25° C., 0.15M NaCl; for pMn: calculated from equilibrium constants at pH = 7.4 and cMn = cL = 10^−5 M
Procedure: as §1, §2
Based on the pMn values presented in Table 1 (calculated using the equilibrium constants at pH=7.4 and cMn=cL=10^−5 M), it can be concluded that the studied Mn(II) complexes are formed in 100% at physiological pH, which is an essential aspect of the practical use.

[3] = literature values, stated as under the same conditions; cited from earlier work
[4] = cited from earlier work

| logK1 (protonation constant) [1] | logK2 (protonation constant) [1] | logK3 (protonation constant) [1] | logK4 (protonation constant) [1] | ΣlogKi^H (total basicity) [1] | logKMnL (stability constant of Mn(II) complex) [2] | pMn [2] | SMILES | r1 relaxivity [3] | Gd(III) ion released, calculated on the basis of experiments ([4]; 25° C.) | Gd(III) ion released during in vivo dissociation ([4]; 37° C.) |
| --- | --- | --- | --- | --- | --- | --- | --- | --- | --- | --- |
| 8.83(1) | 3.89(2) | 3.05(2) | 2.39(2) | 18.16 | 11.47(5) | 7.51 | O=C(O)C1CCCN1C(=O)CN1Cc2cccc(n2)CN(CC(=O)N2CCCC2C(=O)O)Cc2cccc(n2)C1 (stereo not shown) [BP2AM^Pro] | – | – | – |
| 9.57(2) | 2.99(2) | – | – | 12.56 | 13.58(1) | 8.19 | O=C(CN1Cc2cccc(n2)CN(CC(=O)N2CCCCC2)Cc2cccc(n2)C1)N1CCCCC1 [BP2AM^Pyp, 2,11-bis[2-oxo-2-(piperidine-1-il)-ethyl]-2,11-diaza[3.3](2,6)-pyridinophane] | – | – | – |
| – | – | – | – | – | – | – | CNC[C@H](O)[C@@H](O)[C@H](O)[C@H](O)CO.O=C([O-])CN1CCN(CC(=O)[O-])CCN(CC(=O)O)CCN(CC(=O)[O-])CC1.[Gd+3] [DOTAREM] | 3.83 mM⁻¹ s⁻¹ | – | – |
| – | – | – | – | – | – | – | CNC[C@H](O)[C@@H](O)[C@H](O)[C@H](O)CO.CNC[C@H](O)[C@@H](O)[C@H](O)[C@H](O)CO.O=C([O-])CN(CCN(CC(=O)[O-])CC(=O)O)CCN(CC(=O)[O-])CC(=O)O.[Gd+3] [MAGNEVIST] | 4.02 mM⁻¹ s⁻¹ | 0.5% | 2.2% |
